Results as given in paper PMC6109062, “The dual methyltransferase METTL13 targets N terminus and Lys55 of eEF1A and modulates codon-specific translation rates” (Nature Communications, 2018).

Target: T1, MT13-N (N-terminal methyltransferase domain of METTL13) (Homo sapiens, UniProt Q8N6R0)
T1 construct: N-terminal methyltransferase domain, His6-tagged, E. coli
T1 sequence (Q8N6R0 1-245 limits assumed): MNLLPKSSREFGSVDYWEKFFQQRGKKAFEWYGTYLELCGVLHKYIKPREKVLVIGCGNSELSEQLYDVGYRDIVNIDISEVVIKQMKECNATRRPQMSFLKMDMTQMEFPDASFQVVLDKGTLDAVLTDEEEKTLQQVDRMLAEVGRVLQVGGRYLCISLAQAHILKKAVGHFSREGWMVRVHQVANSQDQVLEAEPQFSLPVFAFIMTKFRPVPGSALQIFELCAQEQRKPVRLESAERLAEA
Experiment: [3H]AdoMet methyl transfer to eEF1A1, fluorography; MS
Type: biochemical
Conditions: co-substrate eEF1A1 (Lys55), no nucleotide added; pH 7.4, 1 mM MgCl2, 30 °C; labelled compound

For C[S+](CC[C@H](N)C(=O)O)C[C@H]1O[C@@H](n2cnc3c(N)ncnc32)[C@H](O)[C@@H]1O (stereo partly shown) [AdoMet], the “[3H]AdoMet methyl transfer to eEF1A1, fluorography; MS” value was “Recombinant eEF1A was incubated with MT13-N in the presence of AdoMet”.
